In patent US20240165056A1, “USE OF TAMOXIFEN AND RELATED COMPOUNDS TO REDUCE BREAST IMPLANT CAPSULE FORMATION AND CAPSULAR CONTRACTURE” (Ohio State Innovation Foundation, priority 2021, published 2024):

Key:
Assay type in all cases: in vivo, mice
iNOS = assay: Immunohistochemistry of implant capsule: iNOS pro-inflammatory macrophages; conditions: 75 mg/kg i.p. daily; explant at 2 weeks
Description: (§1) Eight-week-old C57BL/6 or Beige (C57BL/6J-Lyst^bg-J/J) female mice (Jackson Labs, Bar Harbor, ME, USA) (N=10/group) were treated with daily tamoxifen or vehicle injections into the intraperitoneal cavity 1 week before surgery. Tamoxifen injections consisted of 75 mg/kg tamoxifen citrate (Sigma, St. Louis MO, USA) in peanut oil (Sigma, St Louis MO, USA) with 10% ethanol (Sigma, St. Louis MO, USA) to promote dissolution of tamoxifen, while control injections consisted of only peanut oil and ethanol. Daily injections continued until the day of explantation, two weeks after implantation.
(§2) Mice were anesthetized with a standard ketamine/xylazine cocktail. […]
(§3) Explanted silicone pieces and surrounding capsules were fixed overnight in formaldehyde at 4° C. and transitioned to 70% ethanol. […] Primary antibody binding was detected by subsequent incubation with species appropriate biotinylated IgG (Vector Laboratories, CA, USA), followed by streptavidin-horse radish peroxidase (Vector Laboratories, CA, USA) and chromogenic development with 3,3-diaminobenzidine (Vector Laboratories, CA, USA). […] Slides were imaged on a Zeiss Axio Observer Z1 inverted microscope (Zeiss, Germany) and quantified using ImageJ (NIH, USA). […]
(§4) All statistical analysis was performed in Prism 8.0 (GraphPad, San Diego, CA, USA). Data was evaluated for outliers using the Grubb's test. […]

[1] = tested on: Alpha smooth muscle actin (αSMA); assay: Immunohistochemistry of implant capsule: αSMA myofibroblasts; conditions: 75 mg/kg i.p. daily; explant at 2 weeks
Description: as §1, §2, §3, §4

CD68 = assay: Immunohistochemistry of implant capsule: CD68 macrophage infiltration; conditions: 75 mg/kg i.p. daily; explant at 2 weeks
Description: as §1, §2, §3, §4

CD163 = assay: Immunohistochemistry of implant capsule: CD163 anti-inflammatory macrophages; conditions: 75 mg/kg i.p. daily; explant at 2 weeks
Description: as §1, §2, §3, §4

[2] = tested on: fibrous capsule around silicone implants; assay: Silicone breast implant capsule formation in mouse model (H&E, Picro-Sirius Red histology)
Description: as §1
(§5) Mice were anesthetized with a standard ketamine/xylazine cocktail. Fur was clipped and skin was prepped with betadine followed by alcohol pads. Silicone prostheses were implanted in the submammary plane, bilaterally, giving a total of 20 implants per experimental group (FIG. 1B). Skin incisions were re-approximated with 6-0 nylon suture (FIG. 1C).
(§6) After 2 weeks, mice were euthanized and the silicone prostheses were removed en bloc with all surrounding tissue, including the overlying skin for orientation (FIG. 1D). […] These samples were excluded from further analysis owing to the potential confounding nature of bacterial contamination on capsule formation.
Explanted silicone pieces and surrounding capsules were fixed overnight in formaldehyde at 4° C. and transitioned to 70% ethanol. Samples were then paraffin embedded and sectioned at 4 μm. Samples were stained with H&E (FIG. 1E) or Picro-Sirius Red. Immunohistochemistry sections were deparaffinized, rehydrated and blocked for endogenous peroxidase activity (3% H2O2 in H2O) and nonspecific background staining (3% normal goat serum in Background Sniper, BioCare Medical, CA, USA). Antigen retrieval was performed with citrate buffer (pH 6.0) or Tris-EDTA (pH 9.0) in a pressure cooker for 10 minutes and slides were incubated for 30 minutes at room temperature with primary antibodies. Primary antibodies (all from Abcam, Cambridge, UK) included α-SMA (ab124964), CD31 (ab28364), CD68 (ab125212), iNOS (ab15323), CD163 (ab182422), Ki67 (ab15580), ER-α (ab271827), and ER-β (ab3576). Primary antibody binding was detected by subsequent incubation with species appropriate biotinylated IgG (Vector Laboratories, CA, USA), followed by streptavidin-horse radish peroxidase (Vector Laboratories, CA, USA) and chromogenic development with 3,3-diaminobenzidine (Vector Laboratories, CA, USA). Tissue sections were counterstained with Gill's hematoxylin (Vector Laboratories, CA, USA), slides were dehydrated and a cover slip was placed. Slides were imaged on a Zeiss Axio Observer Z1 inverted microscope (Zeiss, Germany) and quantified using ImageJ (NIH, USA).
Histology was quantified from H&E slides within the fibrous capsule on the side oriented with overlying skin to maintain consistency and remove potential variability by dissection at explantation.
(§7) All statistical analysis was performed in Prism 8.0 (GraphPad, San Diego, CA, USA). Data was evaluated for outliers using the Grubb's test. Control and tamoxifen-treated groups were compared with unpaired t-tests, except in cases where the equal variance assumption was violated; when the nonparametric Mann-Whitney test was utilized. A p-value of 0.05 was considered significant.

[3] = Mouse body weight during tamoxifen treatment in silicone implant model; conditions: 75 mg/kg tamoxifen citrate i.p. daily
Description: as §1, §5, §6, §7

[4] = tested on: estrogen receptor β (ER-β); assay: Immunohistochemistry of implant capsule: ER-β; conditions: 75 mg/kg i.p. daily; explant at 2 weeks
Description: as §1, §2, §3, §4

Ki-67 = assay: Immunohistochemistry of implant capsule: Ki-67 cellular proliferation; conditions: 75 mg/kg i.p. daily; explant at 2 weeks
Description: as §1, §2, §3, §4

[5] = tested on: Estrogen receptor α (ER-α); assay: Immunohistochemistry of implant capsule: ER-α; conditions: 75 mg/kg i.p. daily; explant at 2 weeks
Description: as §1, §2, §3, §4

CD31 = assay: Immunohistochemistry of implant capsule: CD31 neovascularization; conditions: 75 mg/kg i.p. daily; explant at 2 weeks
Description: as §1, §2, §3, §4

[6] = Picro-Sirius Red, 75 mg/kg i.p. daily, explant at 2 weeks

CC/C(=C(\c1ccccc1)c1ccc(OCCN(C)C)cc1)c1ccccc1 [tamoxifen]
cellular fraction of iNOS (iNOS): 60.6±12.6%
total number of cells with positivity for iNOS (iNOS): 290.6±104.2 cells/mm
linear density of αSMA+ cells [1]: 295±121 cells/mm
percentage of total cells αSMA+ [1]: 47.9±9.5%
cellular fraction of CD68 (CD68): 55.9±16.0%
linear density of CD68+ cells (CD68): 303.3±136.5 cells/mm
cellular fraction of CD163 (CD163): 29.1±8.4%
total number of cells with positivity for CD163 (CD163): 94.1±45.9 cells/mm
cellularity of the capsules ([2]; 75 mg/kg i.p. daily, explant at 2 weeks): 3624±608 cells/mm^2
capsule thickness ([2]; 75 mg/kg tamoxifen citrate i.p. daily, explant 2 weeks after implantation): 132±49 μm
area percent of collagen [2, 6]: 36.2±3.1%
total collagen surrounding the implants [2, 6]: 43598±10044 μm^2
reduction in capsule thickness ([2]; tamoxifen-treated vs control, explant at 2 weeks): 59%
body weight at the date of surgery ([3]; one week after start of injections): 16.2±1.6 gram body weight
body weight at the start of the injection period ([3]; start of injections, 1 week before surgery): 17.6±1.2 gram body weight
body weight at the two-week explant date ([3]; two weeks after implantation): 16.6±1.0 gram body weight
ER-β expression, cellular fraction [4]: 36.8±7.5%
ER-β total cells/mm [4]: 106.2±69.2 cells/mm
Ki-67+ cells/mm (Ki-67): 324±125 cells/mm
cellular fraction of Ki-67+ cells (Ki-67): 62.4±16.9%
ER-α expression as a fraction of total cells [5]: 31.0±6.3%
ER-α total cells/mm of capsular tissue [5]: 107.0±39.8 cells/mm
CD31+ vessels per mm^2 (CD31): 106.3±51.8 vessels/mm^2
total CD31+ vessels (CD31): 15.9±9.7 vessels/mm
